Results published in patent publication US20190365673A1, “Immunomodulatory Compounds” (Lankenau Institute for Medical Research, priority 2016, published 2019).

Key:
[1] = test system: BRAF^WT melanoma cells; assay: Cell viability, panel of BRAF WT human melanoma cell lines; format: cell-based; conditions: summary of Table 1, BRAF WT lines, read-out: IC50 (sensitivity to AP)
Source text: (§1) A panel of human melanoma cell lines with different BRAF mutational status were screened for their sensitivity to the BRAF inhibitor PLX4720. […] The IC50 value is defined as the concentration of the compound (PLX4720) required to inhibit 50% cell viability compared to an untreated control. This approach allowed for the ranking of the relative sensitivity of each cell line to the PLX4720 BRAF inhibitor. Thus, the sensitivity of these BRAF^V600E melanoma cells to BRAF inhibition with PLX4720 reflected their functional dependence on mutant BRAF signaling to sustain their proliferation and viability. Likewise, it was tested whether BRAF^V600E cells were more sensitive compared to BRAF^WT melanoma cells to increasing concentrations of the cytotoxic polyamine transport ligand, AP.

[2] = test system: polyamine transport system (PTS); assay: Radiolabeled spermidine transport assay, human melanoma cell lines; format: cell-based; conditions: ± SD
Method: Polyamine transport in tumor cells was evaluated essentially as described (Kramer, et al. (1993) J. Cell Physiol., 155(2):399-407; Nilsson, et al. (2005) Cancer Cell 7(5):433-444). Radioactive spermidine (Net-522 Spermidine Trihydrochloride, [Terminal Methylenes-^3H(n)]) from Perkin Elmer was used (specific activity: 16.6 Ci/mmol). Cells were plated in 96 well plates and grown to approximately 80% confluence. Half of the cells were treated with 1 mM DFMO for 40 hours. After repeated washing with PBS, ^3H-spermidine was added at 1 μM and incubated for 60 minutes at 37° C. Cells were then washed with cold PBS containing 50 μM spermidine and lysed in 0.1% SDS at 37° C. for 30 minutes with mixing. Cell lysates were then aliquoted for scintillation counting and for protein assay using a mini-BioRad assay. Results were expressed as CPM/g protein.

[3] = test system: WM3451 melanoma cells; assay: Cell viability assay (EZQuant), WM3451; format: cell-based; conditions: Homo sapiens; AP alone, 72 h, WM3451, BRAF WT
Method: (§2) Cell proliferation assays were conducted in 96-well plates at 25-30% starting confluence to determine the effect of exposure to increasing concentrations of PLX4720 or AP with or without 1 mM DFMO for 72 hours. Cell viability was assessed using the EZQuant™ Cell Quantifying Kit (Alstem) in which WST-8 is reduced by the metabolic activity of live cells to formazan dye. […] The 72 hour IC50 values for AP were calculated using non-linear regression (sigmoidal dose response) of the plot of percentage inhibition versus the log of inhibitor concentration in GraphPad Prism (v5; GraphPad Software, Inc., La Jolla, Calif.).

[4] = test system: B16F10 melanoma tumors; assay: B16F10 melanoma tumor model (Example 3); format: in vivo, C57Bl/6 mice
Method: C57Bl/6 mice were injected s.c. with 1.5×10^5 B16F10 melanoma cells. B16F10 melanoma cells are a poorly immunogenic, highly metastatic, and highly aggressive cancer cell line. When tumors were 40-80 mm^3 in size, AP (Formula (II)) treatment (i.p., 2 mg/kg every other day) was initiated. Some mice were also administered 0.25% DFMO (w/v) in the drinking water. Tumors were measured with calipers to determine tumor volume over 14 days of treatment (FIG. 12A). Splenocytes from mice treated with vehicle, DFMO, AP, or AP+DFMO were analyzed by flow cytometry for F4/80+CD206^+ M2 macrophages (FIG. 12B). Splenocytes were treated for 4 hours at 37° C. with ionomycin (500 ng/ml) and PMA (50 ng/ml) to stimulate T cells to produce IFNγ in the presence of Brefeldin A to block cytokine secretion. Cells were stained with anti-CD4 antibody in the presence of Brefeldin A, fixed, permeabilized and intracellularly stained with an anti-IFNγ antibody and analyzed by flow cytometry (FIG. 12C).

[5] = test system: 1205Lu melanoma cells; assay: Cell viability assay (EZQuant), 1205Lu; format: cell-based; conditions: Homo sapiens, AP alone, 72 h, BRAF V600E
Method: as §2

[6] = test system: BRAF^V600E melanoma cells; assay: Cell viability, panel of BRAF V600E human melanoma cell lines; format: cell-based; conditions: summary of Table 1, BRAF V600E lines, read-out: IC50 (sensitivity to AP)
Source text: as §1

In the case of `CNCNCNCc1ccc(CNCNCNC)c2ccccc12` [AP], the IC50 [1] is reported as greater than 4 µM, the “PTS Activity (cpm ^3H Spd/μg Protein)” value ([2]; 1205Lu, column group AP (without DFMO)) is reported as 230 ± 22 cpm ^3H Spd/μg Protein and the “PTS Activity (cpm ^3H Spd/μg Protein)” value ([2]; WM88, column group AP (without DFMO)) is reported as 302 ± 18 cpm ^3H Spd/μg Protein. The “PTS Activity (cpm ^3H Spd/μg Protein)” value ([2]; WM983B, column group AP (without DFMO)) was 487 ± 64 cpm ^3H Spd/μg Protein, the “PTS Activity (cpm ^3H Spd/μg Protein)” value ([2]; WM989, column group AP (without DFMO)) was 304 ± 28 cpm ^3H Spd/μg Protein and the “PTS Activity (cpm ^3H Spd/μg Protein)” value ([2]; WM3211, column group AP (without DFMO)) was 278 ± 58 cpm ^3H Spd/μg Protein. The “PTS Activity (cpm ^3H Spd/μg Protein)” value ([2]; WM3451, column group AP (without DFMO)) was 130 ± 21 cpm ^3H Spd/μg Protein, the “PTS Activity (cpm ^3H Spd/μg Protein)” value ([2]; WM3734, column group AP (without DFMO)) was 444 ± 46 cpm ^3H Spd/μg Protein and the “PTS Activity (cpm ^3H Spd/μg Protein)” value ([2]; WM3743, column group AP (without DFMO)) was 117 ± 23 cpm ^3H Spd/μg Protein. For the same molecule, the IC50 [3] was 9 µM, the tumor growth ([4]; FIG. 12A, AP alone, i.p. 2 mg/kg every other day, 14 days) was “inhibits tumor growth” and the “CD206+ F4/80+ macrophages (splenocytes)” value ([4]; FIG. 12B, AP alone) was “dramatically decreases”. For the same molecule, the “IFN-gamma-secreting T cells” value ([4]; FIG. 12C, splenocytes stimulated with ionomycin and PMA) was “increasing”, the IC50 [5] was 0.7 µM and the IC50 [6] was less than 2.5 µM.
